Assay results reported in PMC6152618, “Antimicrobial Activity of Truncated and Polyvalent Peptides Derived from the FKCRRWQWRMKKGLA Sequence against Escherichia coli ATCC 25922 and Staphylococcus aureus ATCC 25923” (Molecules : A Journal of Synthetic Chemistry and Natural …, 2017).
Converted amounts (≈) assume the structure as drawn. Read-outs that look alike come from different tables or passages of the source. Ends that are not written are not given here.

Columns and labels:
[1] = system: Staphylococcus aureus ATCC 25923; assay type: cell-based
Experimental: (§1) The MIC was determined using a microdilution assay. In brief, bacterial strains were incubated for 18 to 24 h at 37 °C in an Müller-Hinton (MH) broth until an optical density of 0.15 to 0.30 (620 nm) was obtained. Next, 90 μL of Mueller-Hinton broth (MHB) was mixed with […], and serial dilutions (200, 100, 50, 25, 12.5 and 6.2) were prepared in 96-well microplates (final volume 100 μL/well). Then, 10 μL of inoculum (2 × 10^6 CFU/mL) was added to each well. The final volume in each well was 100 μL. Then they were incubated for 24 h at 37 °C; the absorbance at 620 nm was measured using an Asys Expert Plus ELISA reader. For determining the MBC, a small sample was taken from each well using an inoculation loop, and then was spread on MH agar plates and incubated overnight at 37 °C. MBC was considered on the plate which presented no bacterial growth. Each of these tests was performed twice (n = 2).

[2] = system: Escherichia coli ATCC 25922; assay type: cell-based
Experimental: as §1

[3] = system: S. aureus; set-up: method as in PMID 8980754; conditions: cited from earlier work
[4] = system: E. coli L361; set-up: method as in PMID 8980754; conditions: cited from earlier work
[5] = system: E. coli O9; set-up: method as in PMID 8980754; conditions: cited from earlier work
[6] = system: S. aureus 42D; conditions: cited from earlier work
Excerpt: (§2) Please note that in this sequence some C-terminal positions have been changed compared to LfcinB 17–31 [38, 48]. The peptide LfcinB 17–31 has been studied for its relative structure and antibacterial activit ...

[7] = system: E. coli ML35; conditions: cited from earlier work
Excerpt: as §2

[8] = system: S. aureus; conditions: cited from earlier work
Excerpt: as §2

[9] = system: E coli; conditions: cited from earlier work
Excerpt: as §2

[10] = microdilution, Mueller-Hinton broth, 24 h at 37 °C, absorbance 620 nm, n = 2
[11] = sample of each well spread on MH agar, overnight 37 °C, no bacterial growth, n = 2

Row | Compound | MBC S. aureus ATCC 25923 ([1]; ATCC 25923) | MIC S. aureus ATCC 25923 ([1]; ATCC 25923, 24 h) | MBC E. coli ATCC 25922 ([2]; ATCC 25922) | MIC E. coli ATCC 25922 ([2]; ATCC 25922, 24 h) | further results
1 | CSCC[C@H](NC(=O)[C@H](CCCNC(=N)N)NC(=O)[C@H](Cc1c[nH]c2ccccc12)NC(=O)[C@H](CCC(N)=O)NC(=O)[C@H](Cc1c[nH]c2ccccc12)NC(=O)[C@H](CCCNC(=N)N)NC(=O)[C@H](CCCNC(=N)N)NC(=O)[C@H](CS)NC(=O)[C@H](CCCCN)NC(=O)[C@@H](N)Cc1ccccc1)C(=O)N[C@@H](CCCCN)C(=O)N[C@@H](CCCCN)C(=O)N[C@@H](CC(C)C)C(=O)NCC(=O)N[C@@H](C)C(N)=O [LfcinB 17–31, reference compound] |  |  |  |  | MIC S. aureus ATCC 25923 [1, 10]: >200 µM; MBC S. aureus ATCC 25923 [1, 11]: >200 µM; MIC E. coli ATCC 25922 [2, 10]: 200 µM (≈ 399 µg/mL); MBC E. coli ATCC 25922 [2, 11]: >200 µM
2 | CSCC[C@H](NC(=O)[C@H](CCCNC(=N)N)NC(=O)[C@H](Cc1c[nH]c2ccccc12)NC(=O)[C@H](CCC(N)=O)NC(=O)[C@H](Cc1c[nH]c2ccccc12)NC(=O)[C@H](CCCNC(=N)N)NC(=O)[C@H](CCCNC(=N)N)NC(=O)[C@H](C)NC(=O)[C@H](CCCCN)NC(=O)[C@@H](N)Cc1ccccc1)C(=O)N[C@@H](CCCCN)C(=O)N[C@@H](CCCCN)C(=O)N[C@@H](CC(C)C)C(=O)NCC(=O)N[C@@H](C)C(=O)O [[Ala^19]-LfcinB 17–31] | >200 µM | >200 µM |  |  | 
3 | (FKARRWQWRMKKLGA)2K-Ahx-C [([Ala^19]-LfcinB 17–31)2] |  |  |  |  | MIC S. aureus ATCC 25923 [1, 10]: 12.5 µM; MBC S. aureus ATCC 25923 [1, 11]: 12.5 µM
4 | CRRWQWRMKKLGA-NH2 [LfcinB 19–31] | >200 µM | >200 µM | 100 µM | 100 µM | 
5 | FKCRRWQWR-Homoserine lactone [subfragment 1, literature peptide …-Homoserine lactone] |  |  |  |  | antibacterial activity against S. aureus [3]: > 50 µM; antibacterial activity against E. coli L361 [4]: 10 µM; antibacterial activity against E. coli O9 [5]: 15 µM
6 | FKCRRWQWR-NH2 [LfcinB 17–25] | >200 µM | >200 µM | 100 µM | 100 µM | 
7 | FKCRRWQWRM-NH2 [LfcinB 17–26] |  |  |  |  | MIC S. aureus ATCC 25923 [1, 10]: 200 µM; MBC S. aureus ATCC 25923 [1, 11]: 200 µM; MIC E. coli ATCC 25922 [2, 10]: 100 µM; MBC E. coli ATCC 25922 [2, 11]: 200 µM
8 | FKCRRWQWRMK-NH2 [LfcinB 17–27] | >200 µM | >200 µM | 200 µM | 100 µM | 
9 | FKCRRWQWRMKK-NH2 [LfcinB 17–28] | >200 µM | >200 µM | 200 µM | 200 µM | 
10 | FKCRRWQWRMKKL-NH2 [LfcinB 17–29] |  |  | >200 µM | 200 µM | 
11 | FKCRRWQWRMKKLG-NH2 [LfcinB 17–30] | >200 µM | >200 µM | 200 µM | 200 µM | 
12 | KCRRWQWRMKKLGA [LfcinB 18–31, …, truncated peptide of LfcinB 17–31] |  |  |  |  | MIC S. aureus ATCC 25923 [1, 10]: >200 µM; MBC S. aureus ATCC 25923 [1, 11]: >200 µM; MIC E. coli ATCC 25922 [2, 10]: >200 µM; MBC E. coli ATCC 25922 [2, 11]: >200 µM
13 | LfcinB 20–30: literature analogue of LfcinB 20-31 (CVRRAFALECI; lactoferricin B; UniProt P24627 55-65, looked up, fragment) |  |  |  |  | LD99.9 S. aureus 42D [6]: 7.5 µM; LD99.9 E. coli ML35 [7]: 15 µM
14 | RRWQWR-NH2 [LfcinB 20–25, reference compound] | >200 µM | >200 µM | >200 µM | >200 µM | 
15 | RRWQWRMKKLGA [LfcinB 20–31] | >200 µM | >200 µM | >200 µM | 200 µM | 
16 | RWQWRWQWR [(LfcinB 21–25)Pal] |  |  |  | 12.5 µM | 
17 | SKCYQWQRRMRKLGA |  |  |  |  | MIC S. aureus [8]: > 500 µM; MIC E coli [9]: 252 µM
